Earlier results in patent publication US12285031B2, “Beverage with collagen and additional additives” (WELLDRINKS LTD, priority 2015, dated 2025).
Square brackets hold non-standard residues; d marks the D form. Peptide text beside a SMILES is read from it. Hyp = O=C(O)[C@@H]1C[C@@H](O)CN1

Key:
[1] = adult humans
dermal fibroblasts = conditions: in vitro

| Compound | fraction of ingested Mn absorbed [1] | cell proliferation of dermal fibroblasts (dermal fibroblasts) | production of hyaluronic acid by dermal fibroblasts (dermal fibroblasts) |
| --- | --- | --- | --- |
| [Mn+2] [Mn, Manganese] | 3-5% |  |  |
| O=C(O)[C@@H]1C[C@@H](O)CN1C(=O)[C@@H]1CCCN1 [Pro-Hyp, prolyl-hydroxyproline] (H-Pro-[Hyp]-OH) |  | enhance cell proliferation | enhances |
| O=C(O)CNC(=O)[C@@H]1C[C@@H](O)CN1 [Hyp-Gly, hydroxyprolyl-glycine] (H-[Hyp]-Gly-OH) |  | enhance cell proliferation |  |
